Consider two molecules from patent US11642322B2, “Food supplement and composition comprising choline butyrate salt and/or butyrylcholine” (A[…], priority 2016, dated 2023).

Structures are written as SMILES. Like-named read-outs stand apart in the source and are kept apart here.

One data set concerns villi. The settings on record: 1100 mg per kilogram feed; for average length of the villi: 5 chickens.
The conditions of data set [1]: 1100 mg per kilogram feed, first day of life till day 39.
Text: 396 days old ROSS® 308 meat chickens were used for this test. The test lasted from the first day of life of the chickens till day 39. […] The uncertainty of the measurement value is lower than 0.05.
(§1) The design of the test was for the rest similar to the one described above.
Another data set relates to coccidiose. Put plainly: Influence on Coccidiose infection (chickens in a shed infected with coccidiose). The settings on record: 1100 mg per kilogram feed, till day 39.

Experimental for CD3+ T-cells: 20 days old ROSS® 308 meat chickens were used for this test. The test lasted from the first day of life of the chickens till day 14. […] On day 14, the average amount of CD3+ T-cells was determined for both groups.
Text for coccidiose: 496 days old ROSS® 308 meat chickens were used for this test and were placed in a shed that was infected with coccidiose. The test lasted from the first day of life of the chickens till day 39. […] The uncertainty of the measurement value is lower than 0.05.
Experimental for villi: 20 days old ROSS® 308 meat chickens were used for this test. The test lasted from the first day of life of the chickens till day 39. […] The average length of the villi of 5 chickens was measured for each group after 14 days. […] The average length of the villi of 5 chickens was measured for each group after 39 days. […] The uncertainty of the measurement value is lower than 0.05.
as §1

For `CCCC(=O)OCC[N+](C)(C)C` [butyrylcholine, (N,N,N-trimethyl)-2-ammoniumethylbutanoate], in the data set with villi (after 39 days), the “increase of the length of the villi compared to the control group” value (shortened to “increase of the length of the villi”) amounted to 21%. In addition, the “change of the surface percentage for CD3+ compared to the control group (in words)” value with CD3+ T-cells (similar design, added to the feed) is listed as “increase”. For the same molecule, in data set [1], the “decrease of the FCR value with respect to the control group” value is 5%.

Turning to `CCCC(=O)[O-].C[N+](C)(C)CCO` [choline butyrate], in the data set with villi (after 14 days), the “increase of the length of the villi” value was determined as 7% and the “average length of the villi” value turned out to be 779 μm. Also, in the data set with villi (after 39 days), the “increase of the length of the villi” value is 21% and the “average length of the villi” value is reported as 1231 μm. The “increase of the surface percentage for CD3+ versus control group” value in the data set on CD3+ T-cells (day 14, 1100 mg per kilogram feed) amounted to 27%. In addition, the “surface percentage for CD3+” value in the data set with CD3+ T-cells (day 14, test group, 1100 mg per kilogram feed) is 23 surface percentage. Moreover, in the data set on coccidiose, the “animals that died, supplemented group versus control” value is given as “more animals died” and the “decrease of the FCR value versus control group” value worked out at 13%. The molecule further showed an FCR value with coccidiose (test group) of 2.22. In data set [1], the “decrease of the FCR value with respect to the control group” value was 5%. Also, the FCR value in data set [1] (test group) was 1.57.
